Experimental data published in patent US20060079453A1, “Hla binding peptides and their uses” (priority 2002, published 2006).
Where two headings read alike, the source gives them in different places. No end group written: not given here.

Tests used:
Test in all cases: biochemical
Format in all cases: binding
[1] = target: HLA-DR DRB1*1302 (DR13) (Homo sapiens, UniProt P01903+P01911, A100E/A169T/K41T/L162R/M171V/P40S/Q125H/Q178H/Q39Y/Q99D/R42S/S66N/T262R/V115G/W38E/Y61H); conditions: DRBI *1302
[2] = target: HLA-DR DRB1*1501 (DR15) (Homo sapiens, UniProt P01903+P01911); conditions: DRBI *1501
[3] = target: HLA-DR DRB1*0901 (DR9) (Homo sapiens, UniProt P01903+P01911, A100R/A103E/D57H/D86V/F55Y/F60I/F76Y/I96F/K127E/L162R/M171V/P40D/Q125H/Q99R/R33Q/R42F/S133A/S66N/T210M/V115G/W38K/Y107V/Y59G/Y89S)
[4] = target: HLA-DR DRB1*0401 (DR4) (Homo sapiens, UniProt P01903+P01911, A100K/A169T/F76Y/I96L/K127E/L162R/M171V/N62H/P40V/Q125Y/R42H/S133A/S149N/S66Y/V115G/V209L/W38E)
[5] = target: HLA-DR DRB1*0101 (DR1) (Homo sapiens, UniProt P01903+P01911, A100R/D57E/F55L/F60I/F76Y/I96L/L162R/M171V/P40L/Q125E/R42F/V115G/Y59C)
[6] = target: HLA-DR DRB1*0701 (DR7) (Homo sapiens, UniProt P01903+P01911, A100R/A102G/A103Q/D57E/D86V/E43K/F76Y/K127E/L162R/M171V/P40G/Q125H/Q99D/R33Q/R42Y/R54Q/S133A/S66F/T210M/V115G/Y107V/Y59L/Y89S)
[7] = target: HLA-DR DRB5*0101 (DR51) (Homo sapiens, UniProt P01903+Q30154); conditions: DRB5 *0101
[8] = target: HLA-DR DRB1*0301 (DR3) (Homo sapiens, UniProt P01903+P01911, A100K/A102G/A103R/A169T/F55Y/I96L/K41T/L162R/M171V/P40S/Q125H/Q178H/Q39Y/R42S/S66N/T106N/T262R/W38E/Y61H)
Sequence of HLA-DR DRB1*0301 (DR3) (P01903 26-254 limits assumed, other chains not shown): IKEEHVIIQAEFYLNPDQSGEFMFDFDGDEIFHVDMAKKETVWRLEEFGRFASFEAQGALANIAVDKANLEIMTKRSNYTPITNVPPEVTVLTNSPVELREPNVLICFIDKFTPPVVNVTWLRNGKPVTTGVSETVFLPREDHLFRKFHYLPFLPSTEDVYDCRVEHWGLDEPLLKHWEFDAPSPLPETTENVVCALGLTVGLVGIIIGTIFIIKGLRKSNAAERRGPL

[9] = target: HLA-DR DRB1*1101 (DR11) (Homo sapiens, UniProt P01903+P01911, A100R/A169T/A87E/I96F/K41T/L162R/M171V/P40S/Q125H/Q178H/Q39Y/Q99D/R42S/S66Y/T262R/V115G/W38E); conditions: DRB1 *1101
Sequence of HLA-DR DRB1*1101 (DR11) (P01903 26-254 limits assumed, other chains not shown): as above

[10] = target: HLA-DR DRB4*0101 (DR53) (Homo sapiens, UniProt P01903+P13762, G164S); conditions: DRB4 *0101
[11] = target: HLA-DR DRB1*0802 (DR8) (Homo sapiens, UniProt P01903+P01911, A100R/A103L/A169T/F76Y/H45Y/I96F/K41T/L162R/M171V/P40S/Q125H/Q178H/Q39Y/Q99D/R218S/R42G/S66Y/V115G/W38E)

Sequence of HLA-DR DRB1*1302 (DR13) (P01903 26-254 limits assumed, other chains not shown): as above

| Compound | IC50 [1] [nM] | IC50 [2] [nM] | IC50 ([4]; DRB1 *0401) [nM] | IC50 ([5]; DRB1 *0101) [nM] | IC50 ([6]; DRB1 *0701) [nM] | IC50 [7] [nM] | IC50 [10] [nM] | IC50 ([4]; read-out: DRB1 *0401) [nM] | IC50 ([5]; read-out: DRB1 *0101) [nM] | IC50 ([3]; read-out: DRB1 *0901) [nM] | further results |
| --- | --- | --- | --- | --- | --- | --- | --- | --- | --- | --- | --- |
| CC(C)C[C@H](NC(=O)[C@H](CCC(N)=O)NC(=O)[C@H](CCC(N)=O)NC(=O)[C@@H](N)Cc1ccccc1)C(=O)N[C@@H](Cc1ccccc1)C(=O)N[C@@H](CC(C)C)C(=O)N[C@@H](CC(N)=O)C(=O)N[C@H](C(=O)N[C@@H](CC(C)C)C(=O)N[C@@H](CO)C(=O)N[C@@H](Cc1ccccc1)C(=O)N[C@H](C(=O)N[C@@H](CS)C(=O)N1CCC[C@H]1C(=O)N[C@@H](Cc1c[nH]c2ccccc12)C(=O)O)C(C)C)[C@@H](C)O | 9.3 | 24800 |  |  |  |  |  |  |  |  | IC50 ([3]; DRB1 *0901): 2060 nM |
| CC[C@H](C)[C@H](N)C(=O)N[C@@H](CCCNC(=N)N)C(=O)N[C@H](C(=O)N[C@@H](CC(C)C)C(=O)N[C@@H](CCC(N)=O)C(=O)N[C@@H](CCC(=O)O)C(=O)N[C@@H](CC(C)C)C(=O)N[C@@H](CC(C)C)C(=O)N[C@@H](CCSC)C(=O)NCC(=O)N[C@@H](CO)C(=O)N[C@@H](Cc1ccccc1)C(=O)NCC(=O)N[C@H](C(=O)N[C@H](C(=O)O)C(C)C)[C@@H](C)CC)[C@@H](C)CC | 1040 | 294 | 724 | 67 | 2000 | > 55100 | 17 |  |  |  | IC50 [8]: 31800 nM; IC50 [9]: 7980 nM; IC50 ([3]; DRB1 *0901): 271 nM |
| CC[C@H](C)[C@H](NC(=O)[C@H](CC(C)C)NC(=O)[C@H](CCCCN)NC(=O)[C@H](CCCCN)NC(=O)[C@@H](N)Cc1ccc(O)cc1)C(=O)N[C@@H](CCSC)C(=O)N[C@@H](Cc1ccc(O)cc1)C(=O)N[C@@H](CO)C(=O)N[C@@H](C)C(=O)N[C@@H](Cc1c[nH]cn1)C(=O)N[C@@H](CC(=O)O)C(=O)N[C@H](C(=O)N[C@H](C(=O)N[C@H](C(=O)N[C@@H](CO)C(=O)O)C(C)C)[C@@H](C)O)[C@@H](C)O | 37 | 15 |  | 17 |  | 5480 | 5.8 |  |  |  | IC50 [8]: 22700 nM; IC50 [9]: 208 nM; IC50 ([3]; DRB1 *0901): 107 nM |
| ALLIIPPKIHISIEL |  | 1820 | 1740 | 648 | 8.4 | 7140 | 10 |  |  |  | IC50 [11]: 12000 nM |
| AVGLPSTPVHPIGYY |  |  |  |  |  |  |  | 4190 | 3.6 |  | IC50 ([11]; read-out: DRB1 *0802): 4430 nM |
| DIRILQELLMGSFGI | 5800 | 1620 |  | 88 | 1590 | > 55100 | 16 |  |  |  | IC50 [8]: 3250 nM; IC50 [9]: 19000 nM |
| FPTIPLSRLFDNAM |  |  |  |  |  |  |  | 9460 | 6920 | 15000 | IC50 ([6]; read-out: DRB1 *0701): 5530 nM; IC50 ([8]; read-out: DRB1 *0301): 46700 nM |
| GGVLVNEILNHMK |  |  |  |  |  |  |  | 359 |  | 54400 | IC50 ([6]; read-out: DRB1 *0701): 29500 nM; IC50 ([8]; read-out: DRB1 *0301): 700 nM |
| GVIYIMIISKKMMRK |  | 173 | 22 | 10 |  | 46 | 157 |  |  |  | IC50 [11]: 137 nM |
| GYKVLVLNPSV |  |  |  |  |  |  |  | 27 | 16 | 8790 | IC50 ([8]; read-out: DRB1 *0301): 72400 nM |
| ILFLVKMNALRRLPV |  | 1.4 | 5.6 | 0.8 | 56 | 14 | 7.6 |  |  |  | IC50 [11]: 19 nM |
| KCLVISQVSNSDSYK | 236 |  | 16 | 628 | 46400 | > 42600 | 81 |  |  |  | IC50 [11]: 17900 nM |
| KEYVLDLYPEPTDLY | > 14800 | 3170 | 131 | 5950 | > 72300 | > 55100 |  |  |  |  | IC50 [9]: > 59200 nM; IC50 ([3]; DRB1 *0901): > 49900 nM |
| KKCLNEILIRCHCQ |  |  |  |  |  |  |  |  | 9360 | 4000 |  |
| KKNIIALLIIPPKIIA |  |  |  |  |  |  |  |  | 13 |  | IC50 ([6]; read-out: DRB1 *0701): 495 nM; IC50 ([11]; read-out: DRB1 *0802): 157 nM |
| LCNFKKNIIALLIIP |  |  |  |  |  |  |  | 312 | 9.7 |  | IC50 ([11]; read-out: DRB1 *0802): 21300 nM |
| LEDLLMGTLGIVCP |  |  |  |  |  |  |  |  |  | 1990 |  |
| LGFLQRSSNTQTQK |  |  |  |  |  |  |  | 18 |  | 1340 | IC50 ([6]; read-out: DRB1 *0701): 420 nM |
| LKELIKVGLPSFENL |  | 361 | 163 | 99 | 542 | 41300 | 110 |  |  |  | IC50 [11]: 1490 nM |
| LQQMLLGTLQVVCPG | 395 |  | 1500 | 168 | 929 | 29200 | 1010 |  |  |  | IC50 [9]: > 31600 nM; IC50 ([3]; DRB1 *0901): 1690 nM |
